The species named for assay [1] is Rattus norvegicus. In words: Percent intrinsic activity relative to 100 uM (S)-nicotine. The format is functional.
Assay [2] concerns the target T1, Neuronal acetylcholine receptor; alpha4/beta2 (Homo sapiens, UniProt P17787+P43681). Put plainly: (§1) Percent intrinsic activity against K177 cells relative to 100 uM (S)-nicotine. The format is functional, cell-based.
The target in assay [3] is T2, Acetylcholine receptor subunit alpha (Homo sapiens, UniProt P02708). In words: Tested for functional activity against alpha-1 neuronal nicotinic acetylcholine receptor(nAChR) expressed in TE671 cells using isotopic rubidium efflux assay. The format is cell-based, TE-671.
T2 sequence (P02708 whole entry): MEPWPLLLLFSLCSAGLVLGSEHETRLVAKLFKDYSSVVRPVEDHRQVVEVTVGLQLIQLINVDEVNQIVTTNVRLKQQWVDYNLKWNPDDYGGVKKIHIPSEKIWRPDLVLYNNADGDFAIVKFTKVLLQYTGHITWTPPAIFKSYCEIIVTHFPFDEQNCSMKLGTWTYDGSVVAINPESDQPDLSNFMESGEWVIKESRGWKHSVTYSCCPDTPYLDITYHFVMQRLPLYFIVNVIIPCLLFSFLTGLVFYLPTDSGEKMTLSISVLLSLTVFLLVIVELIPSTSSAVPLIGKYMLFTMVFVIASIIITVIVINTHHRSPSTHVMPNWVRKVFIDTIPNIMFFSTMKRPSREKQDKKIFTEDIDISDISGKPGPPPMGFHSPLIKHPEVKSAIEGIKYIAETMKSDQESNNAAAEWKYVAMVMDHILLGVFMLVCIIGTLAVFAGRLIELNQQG
Assay [4] is described as follows: Tested for functional activity against neuronal nicotinic acetylcholine receptor(nAChR) expressed in IMR-32 cells using isotopic rubidium efflux assay. The format is cell-based. Conditions: Homo sapiens.
Assay [5] can be described thus: Percent intrinsic activity against IMR-32 cells relative to 100 uM (S)-nicotine. The class given is functional, Homo sapiens.
The target in assay [6] is T2, Acetylcholine receptor subunit alpha. Put plainly: Percent intrinsic activity against TE671 cells relative to 100 uM (S)-nicotine. The class given is functional, cell-based. The conditions noted are these: TE-671.
Assay [7] shares this target. Described as §1. The format is functional, cell-based.
Assay [8] deals with Neuronal acetylcholine receptor. Put plainly: Tested for neuronal nicotinic acetylcholine receptor (nAChR) binding in a whole rat brain preparation using […] as the radioligand.
In assay [9] the target is T1, Neuronal acetylcholine receptor; alpha4/beta2. In words: Tested for functional activity against neuronal nicotinic acetylcholine receptor(nAChR) expressed in K177 cells using isotopic rubidium efflux assay. The class given is cell-based.
The species entered for assay [10] is Rattus norvegicus. Put plainly: Tested for nAChR-mediated dopamine release from rat striatal slices. The format is functional.

T1 sequence (P17787 whole entry): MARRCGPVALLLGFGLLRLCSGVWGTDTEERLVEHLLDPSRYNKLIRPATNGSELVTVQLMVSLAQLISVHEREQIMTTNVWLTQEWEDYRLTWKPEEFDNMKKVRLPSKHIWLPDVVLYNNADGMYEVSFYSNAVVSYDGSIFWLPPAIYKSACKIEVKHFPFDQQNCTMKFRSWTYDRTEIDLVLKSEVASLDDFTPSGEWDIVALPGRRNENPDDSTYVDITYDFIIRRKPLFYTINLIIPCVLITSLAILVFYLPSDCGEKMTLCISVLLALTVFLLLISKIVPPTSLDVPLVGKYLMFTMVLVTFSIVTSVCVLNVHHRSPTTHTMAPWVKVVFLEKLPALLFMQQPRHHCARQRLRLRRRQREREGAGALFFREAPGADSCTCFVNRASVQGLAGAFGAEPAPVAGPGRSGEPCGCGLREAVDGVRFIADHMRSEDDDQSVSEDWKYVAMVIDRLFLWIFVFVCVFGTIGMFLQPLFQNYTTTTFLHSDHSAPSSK
T1 sequence (P43681 whole entry): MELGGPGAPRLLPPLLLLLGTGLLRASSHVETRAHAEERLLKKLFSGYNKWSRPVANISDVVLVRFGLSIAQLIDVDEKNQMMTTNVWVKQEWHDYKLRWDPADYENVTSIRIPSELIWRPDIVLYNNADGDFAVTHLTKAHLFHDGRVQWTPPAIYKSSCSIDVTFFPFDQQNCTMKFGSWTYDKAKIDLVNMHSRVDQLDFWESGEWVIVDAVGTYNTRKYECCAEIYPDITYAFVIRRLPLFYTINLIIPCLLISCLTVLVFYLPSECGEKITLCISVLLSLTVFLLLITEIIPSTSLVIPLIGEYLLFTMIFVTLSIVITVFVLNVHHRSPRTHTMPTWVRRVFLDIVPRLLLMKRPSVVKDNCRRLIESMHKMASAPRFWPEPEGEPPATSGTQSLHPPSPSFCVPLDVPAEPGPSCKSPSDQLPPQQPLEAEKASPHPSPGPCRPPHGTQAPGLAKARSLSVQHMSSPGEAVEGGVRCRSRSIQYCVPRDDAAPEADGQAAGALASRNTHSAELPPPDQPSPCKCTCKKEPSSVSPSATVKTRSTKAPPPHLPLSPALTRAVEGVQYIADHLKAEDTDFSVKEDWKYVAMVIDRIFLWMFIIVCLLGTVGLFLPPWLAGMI

A word on the EC50: it is the concentration giving half of the maximal effect. A low value points to greater potency. As for `CN1CCC[C@H]1c1cccnc1` [NICOTINE], the Intrinsic activity (in the assay listed under Rattus norvegicus [1]; in assay [2]; in [5]; in assay [6]) was 100% throughout. Besides, the EC50 is 180 µM in assay [3] and 21 µM in assay [4].
Broadly, the Ki is a measure of affinity in units of concentration, obtained from inhibition or displacement. With `c1cnc2cc([C@@H]3CCCN3)oc2c1`, the Intrinsic activity in assay [7] was determined as 7.4%; in assay [5], 9.2%. For the same molecule, in assay [4], the 50% effective concentration (EC50) was more than 1000 µM. Affinity in [8] was put at a Ki of 75.8 nM.
For `CN1CCC[C@H]1COc1cccnc1`, the Intrinsic activity in the assay filed under Rattus norvegicus [1] came to 74%; in assay [2], 100%; in assay [5] it was 77.2%; in [6], 40%. For the same molecule, the EC50 was 34 µM in assay [3], 24 µM in [4], 0.75 µM in [9] and 107 µM in the assay filed under Rattus norvegicus [10].
`CN1CCC[C@@H]1c1cc2ncccc2o1`: the Intrinsic activity was found to be 5.7% in [2] and 15.2% in assay [5]. For the same molecule, the EC50 in [4] and in assay [9] was more than 1000 µM each time. The molecule also yielded a Ki in [8] of 97.9 nM.
For the molecule `Cc1cc([C@@H]2CCCN2C)on1` [ABT-418], the Intrinsic activity in the assay listed under Rattus norvegicus [1] came to 100%; in [2] it was 93%; in assay [5], 85%; in assay [6], 38%. The EC50 was 411 µM in [3], 64 µM in [4], 10.6 µM in [9] and 380 µM in the assay listed under Rattus norvegicus [10].
Consider `CN1CCC[C@H]1c1cc2ncccc2o1`, for which the Intrinsic activity in the assay listed under Rattus norvegicus [1] was found to be 43%; in [2] it was 81%; in assay [5], 10.6%; in [6] it was 18.9%. The concentration for a half-maximal effect (EC50) was more than 100 µM in assay [3], more than 1000 µM in assay [4], 3.2 µM in [9] and 141 µM in the assay filed under Rattus norvegicus [10]. Besides, the inhibition constant (Ki) in [8] was 2.73 nM.
`c1cnc2cc([C@H]3CCCN3)oc2c1`: the results for the Intrinsic activity in assay [2] and in assay [5] were 30% and 57.8%, respectively. The EC50 in [4] was found to be 41.5 µM; in assay [9], 11 µM. Also, in [8], the Ki amounted to 5.11 nM.

The values are drawn from ChEMBL document CHEMBL1149929, “Novel 2-(2-furo[3,2-b]pyridinyl) pyrrolidines: potent neuronal nicotinic acetylcholine receptor ligands” (Bioorg Med Chem Lett, 1997).
